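Five concentrations, 48 hours, 96-well plates. Here, GI50 denotes the concentration required for 50% inhibition of growth.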 Calls of active or inactive are those of the source. No stated cut-off is given here; in the data, active = GI50 up to about 1.1 µM and inactive = higher.
Columns and labels:
Assay in all cases: NCI tumour cell line growth inhibition, 48 h
786-0 = system: 786-0
A498 = system: A498
A549 = system: A549
ACHN = system: ACHN
BT-549 = system: BT-549
CAKI-1 = system: CAKI-1
CCRF-CEM = system: CCRF-CEM
COLO 205 = system: COLO 205
DU-145 = system: DU-145
EKVX = system: EKVX
HCC 2998 = system: HCC 2998
HCT-116 = system: HCT-116
HCT-15 = system: HCT-15
HL-60 = system: HL-60
HOP-62 = system: HOP-62
HT-29 = system: HT-29
Hs-578T = system: Hs-578T
IGROV-1 = system: IGROV-1
K562 = system: K562
KM12 = system: KM12
LOX IMVI = system: LOX IMVI
M14 = system: M14
MCF7 = system: MCF7
MDA-MB-231 = system: MDA-MB-231
MDA-MB-435 = system: MDA-MB-435
MDA-N = system: MDA-N
MOLT-4 = system: MOLT-4
Malme-3M = system: Malme-3M
NCI-H226 = system: NCI-H226
NCI-H23 = system: NCI-H23
NCI-H460 = system: NCI-H460
NCI-H522 = system: NCI-H522
NCI/ADR-RES = system: NCI/ADR-RES
OVCAR-3 = system: OVCAR-3
OVCAR-4 = system: OVCAR-4
OVCAR-5 = system: OVCAR-5
OVCAR-8 = system: OVCAR-8
PC-3 = system: PC-3
RPMI-8226 = system: RPMI-8226
RXF 393 = system: RXF 393
SF-268 = system: SF-268
SF-295 = system: SF-295
SF-539 = system: SF-539
SK-MEL-28 = system: SK-MEL-28
SK-MEL-2 = system: SK-MEL-2
SK-MEL-5 = system: SK-MEL-5
SK-OV-3 = system: SK-OV-3
SN12C = system: SN12C
SNB-19 = system: SNB-19
SNB-75 = system: SNB-75
SR = system: SR
SW-620 = system: SW-620
T47D = system: T47D
TK-10 = system: TK-10
U-251 = system: U-251
UACC-257 = system: UACC-257
UACC-62 = system: UACC-62
UO-31 = system: UO-31

COc1cc(C)c(C2NC(=O)c3ccccc3N2)cc1C (stereo unspecified)
GI50 (786-0): 0.417 µM (active) | GI50 (A498): 0.312 µM (active) | GI50 (A549): 0.596 µM (active) | GI50 (ACHN): 0.47 µM (active) | GI50 (BT-549): 0.476 µM (active) | GI50 (CAKI-1): 0.252 µM (active) | GI50 (CCRF-CEM): 0.352 µM (active) | GI50 (COLO 205): 0.313 µM (active) | GI50 (DU-145): 0.4 µM (active) | GI50 (EKVX): 1.12 µM (inactive) | GI50 (HCC 2998): 1.33 µM (inactive) | GI50 (HCT-116): 0.34 µM (active) | GI50 (HCT-15): 0.217 µM | GI50 (HL-60): 0.1 µM (active) | GI50 (HOP-62): 1.36 µM (inactive) | GI50 (HT-29): 0.321 µM (active) | GI50 (Hs-578T): 0.234 µM (active) | GI50 (IGROV-1): 0.472 µM (active) | GI50 (K562): 0.125 µM (active) | GI50 (KM12): 0.15 µM (active) | GI50 (LOX IMVI): 0.451 µM (active) | GI50 (M14): 0.316 µM (active) | GI50 (MCF7): 0.957 µM (active) | GI50 (MDA-MB-231): 0.968 µM (active) | GI50 (MDA-MB-435): 0.0294 µM (active) | GI50 (MDA-N): 0.0283 µM (active) | GI50 (MOLT-4): 1.04 µM (active) | GI50 (Malme-3M): 0.183 µM (active) | GI50 (NCI-H226): 0.652 µM (active) | GI50 (NCI-H23): 2.51 µM (inactive) | GI50 (NCI-H460): 0.342 µM (active) | GI50 (NCI-H522): 0.254 µM (active) | GI50 (NCI/ADR-RES): 0.149 µM (active) | GI50 (OVCAR-3): 0.127 µM (active) | GI50 (OVCAR-4): 0.342 µM (active) | GI50 (OVCAR-5): 0.75 µM (active) | GI50 (OVCAR-8): 0.942 µM (active) | GI50 (PC-3): 0.265 µM (active) | GI50 (RPMI-8226): 0.0931 µM (active) | GI50 (RXF 393): 0.358 µM (active) | GI50 (SF-268): 0.518 µM (active) | GI50 (SF-295): 0.243 µM (active) | GI50 (SF-539): 0.229 µM (active) | GI50 (SK-MEL-28): 0.59 µM (active) | GI50 (SK-MEL-2): 0.297 µM (active) | GI50 (SK-MEL-5): 0.135 µM (active) | GI50 (SK-OV-3): 0.378 µM (active) | GI50 (SN12C): 0.692 µM (active) | GI50 (SNB-19): 0.468 µM (active) | GI50 (SNB-75): 0.0543 µM (active) | GI50 (SR): 0.0364 µM (active) | GI50 (SW-620): 0.303 µM (active) | GI50 (T47D): 0.447 µM (active) | GI50 (TK-10): 2.28 µM (inactive) | GI50 (U-251): 0.396 µM (active) | GI50 (UACC-257): 0.47 µM (active) | GI50 (UACC-62): 0.201 µM (active) | GI50 (UO-31): 0.468 µM (active)

COCCOC(=O)C(C)=[N+]=[N-]
GI50 (786-0): > 100 µM (inactive) | GI50 (A498): > 100 µM (inactive) | GI50 (ACHN): > 100 µM (inactive) | GI50 (BT-549): > 100 µM (inactive) | GI50 (CAKI-1): > 100 µM (inactive) | GI50 (COLO 205): > 100 µM (inactive) | GI50 (DU-145): > 100 µM (inactive) | GI50 (EKVX): > 100 µM (inactive) | GI50 (HCC 2998): > 100 µM (inactive) | GI50 (HCT-116): > 100 µM (inactive) | GI50 (HCT-15): > 100 µM | GI50 (HOP-62): > 100 µM (inactive) | GI50 (HT-29): > 100 µM (inactive) | GI50 (Hs-578T): > 100 µM (inactive) | GI50 (IGROV-1): > 100 µM (inactive) | GI50 (K562): > 100 µM (inactive) | GI50 (KM12): > 100 µM (inactive) | GI50 (LOX IMVI): > 100 µM (inactive) | GI50 (MCF7): > 100 µM (inactive) | GI50 (MDA-MB-231): > 100 µM (inactive) | GI50 (MDA-MB-435): > 100 µM (inactive) | GI50 (MDA-N): > 100 µM (inactive) | GI50 (Malme-3M): > 100 µM (inactive) | GI50 (NCI-H226): > 100 µM (inactive) | GI50 (NCI-H23): > 100 µM (inactive) | GI50 (NCI-H460): > 100 µM (inactive) | GI50 (NCI-H522): > 100 µM (inactive) | GI50 (NCI/ADR-RES): > 100 µM (inactive) | GI50 (OVCAR-3): > 100 µM (inactive) | GI50 (OVCAR-4): > 100 µM (inactive) | GI50 (OVCAR-5): > 100 µM (inactive) | GI50 (OVCAR-8): > 100 µM (inactive) | GI50 (PC-3): > 100 µM (inactive) | GI50 (RPMI-8226): > 100 µM (inactive) | GI50 (RXF 393): > 100 µM (inactive) | GI50 (SF-268): > 100 µM (inactive) | GI50 (SF-295): > 100 µM (inactive) | GI50 (SK-MEL-28): > 100 µM (inactive) | GI50 (SK-MEL-5): > 100 µM (inactive) | GI50 (SN12C): > 100 µM (inactive) | GI50 (SNB-19): > 100 µM (inactive) | GI50 (SNB-75): > 100 µM (inactive) | GI50 (SR): 68.1 µM (inactive) | GI50 (SW-620): > 100 µM (inactive) | GI50 (T47D): > 100 µM (inactive) | GI50 (TK-10): > 100 µM (inactive) | GI50 (U-251): > 100 µM (inactive) | GI50 (UACC-257): > 100 µM (inactive) | GI50 (UACC-62): > 100 µM (inactive) | GI50 (UO-31): > 100 µM (inactive)

COC(=O)C1(N2CCOCC2)CCC([C@@H](c2ccccc2)C(C)[N+](=O)[O-])C1 (stereo partly specified)
GI50 (786-0): 75.9 µM (inactive) | GI50 (A498): > 100 µM (inactive) | GI50 (A549): > 100 µM (inactive) | GI50 (ACHN): > 100 µM (inactive) | GI50 (BT-549): 16.8 µM (inactive) | GI50 (CCRF-CEM): 0.603 µM (active) | GI50 (COLO 205): 64.6 µM (inactive) | GI50 (DU-145): 19.7 µM (inactive) | GI50 (EKVX): > 100 µM (inactive) | GI50 (HCC 2998): > 100 µM (inactive) | GI50 (HCT-15): 66.8 µM | GI50 (HL-60): 85.3 µM (inactive) | GI50 (HOP-62): > 100 µM (inactive) | GI50 (HT-29): > 100 µM (inactive) | GI50 (Hs-578T): > 100 µM (inactive) | GI50 (K562): 51.6 µM (inactive) | GI50 (KM12): > 100 µM (inactive) | GI50 (LOX IMVI): 39 µM (inactive) | GI50 (M14): > 100 µM (inactive) | GI50 (MCF7): 21.9 µM (inactive) | GI50 (MDA-MB-231): > 100 µM (inactive) | GI50 (MDA-MB-435): > 100 µM (inactive) | GI50 (MDA-N): > 100 µM (inactive) | GI50 (MOLT-4): > 100 µM (inactive) | GI50 (Malme-3M): > 100 µM (inactive) | GI50 (NCI-H226): > 100 µM (inactive) | GI50 (NCI-H23): > 100 µM (inactive) | GI50 (NCI-H460): > 100 µM (inactive) | GI50 (NCI/ADR-RES): > 100 µM (inactive) | GI50 (OVCAR-3): 18.7 µM (inactive) | GI50 (OVCAR-4): 55.5 µM (inactive) | GI50 (OVCAR-5): > 100 µM (inactive) | GI50 (OVCAR-8): > 100 µM (inactive) | GI50 (PC-3): > 100 µM (inactive) | GI50 (RPMI-8226): 13 µM (inactive) | GI50 (SF-268): > 100 µM (inactive) | GI50 (SF-295): > 100 µM (inactive) | GI50 (SF-539): > 100 µM (inactive) | GI50 (SK-MEL-28): > 100 µM (inactive) | GI50 (SK-MEL-2): > 100 µM (inactive) | GI50 (SK-MEL-5): > 100 µM (inactive) | GI50 (SK-OV-3): > 100 µM (inactive) | GI50 (SN12C): > 100 µM (inactive) | GI50 (SNB-19): > 100 µM (inactive) | GI50 (SNB-75): 34.5 µM (inactive) | GI50 (SR): 20.8 µM (inactive) | GI50 (SW-620): 45.2 µM (inactive) | GI50 (T47D): 2.03 µM (inactive) | GI50 (TK-10): > 100 µM (inactive) | GI50 (U-251): > 100 µM (inactive) | GI50 (UACC-257): 28 µM (inactive) | GI50 (UACC-62): > 100 µM (inactive) | GI50 (UO-31): > 100 µM (inactive)

— ChEMBL document CHEMBL1201862, “PubChem BioAssay data set” (2004)
